The text below walks through data of patent US6972319B1, “Pituitary adenylate cyclase activating peptide (PACAP)receptor 3 (R3) agonists and their pharmacological methods of use” (priority 1999, dated 2005).

One assay deals with T1, PACAP-R3 (Homo sapiens, UniProt P41587).
T1 sequence (P41587 24-438): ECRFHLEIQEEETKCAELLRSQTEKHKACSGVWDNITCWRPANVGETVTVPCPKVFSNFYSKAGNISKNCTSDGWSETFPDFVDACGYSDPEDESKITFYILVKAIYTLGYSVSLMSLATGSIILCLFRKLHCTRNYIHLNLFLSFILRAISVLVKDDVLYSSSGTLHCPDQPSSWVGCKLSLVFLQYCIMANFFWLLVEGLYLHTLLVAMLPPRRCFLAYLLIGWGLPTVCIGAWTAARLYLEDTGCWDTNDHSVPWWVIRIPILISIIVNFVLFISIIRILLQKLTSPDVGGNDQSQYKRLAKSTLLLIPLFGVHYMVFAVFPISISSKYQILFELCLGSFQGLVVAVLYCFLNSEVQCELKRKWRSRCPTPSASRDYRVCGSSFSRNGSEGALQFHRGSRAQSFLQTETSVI
Nature of the assay: Cyclic AMP SPA on CHO cells expressing PACAP R3. Particulars: for pEC50: cAMP SPA, CHO cells transfected with PACAP-R3, concentration at which 50% of maximum PACAP27 activity is achieved, NA = no detectable activities, read-out: R3 EC50; for R3 Selectivity: ratio of EC50 at R2 versus EC50 at R3. Further details: expressed in transfected cells; host or cells: CHO cells (Geneticin selection). The format is cell-based. Put shortly:
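Transfected CHO cells grown 24 h were exposed to peptide for 15 min at 37 C in Hepes-PBS-BSA containing 100 uM IBMX, 0.4 mg/ml soybean trypsin inhibitor and 0.5 mg/ml bacitracin. Cellular cAMP was measured by scintillation proximity assay. EC50 is the peptide concentration giving 50% of maximal PACAP27 activity.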

A further assay addresses T2, PACAP-R2 (Homo sapiens, UniProt P32241).
T2 construct: expressed in transfected cells; host or cells: CHO cells
T2 sequence (P32241 31-457): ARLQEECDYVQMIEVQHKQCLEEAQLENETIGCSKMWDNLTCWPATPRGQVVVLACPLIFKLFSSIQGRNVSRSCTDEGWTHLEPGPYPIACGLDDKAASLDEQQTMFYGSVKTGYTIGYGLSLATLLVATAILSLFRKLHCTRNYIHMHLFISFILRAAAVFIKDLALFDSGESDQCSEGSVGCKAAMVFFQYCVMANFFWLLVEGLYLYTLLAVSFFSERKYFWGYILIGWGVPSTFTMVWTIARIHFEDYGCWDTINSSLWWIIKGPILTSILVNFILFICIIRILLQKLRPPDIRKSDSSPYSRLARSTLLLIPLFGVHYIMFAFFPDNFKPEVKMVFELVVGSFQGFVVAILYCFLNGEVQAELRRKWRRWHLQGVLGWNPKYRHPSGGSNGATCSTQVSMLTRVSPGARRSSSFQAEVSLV
The assay is described as follows: Cyclic AMP SPA on CHO cells transfected with PACAP-R2. The format is cell-based. Particulars: cAMP SPA, concentration at which 50% of maximum PACAP27 activity is achieved, NA = no detectable activities, read-out: R2 EC50. The protocol: CHO cells expressing the PACAP R3 were plated in 96-well plates (Costar) at 8×10^4 cell/well and grown at 37 C. for 24 hours in α MEM+nucleosides+glutamine (Giobco BRL), 10% FBS, 100 μg/ml Pen/Strep, 0.3 mg/ml glutamine, 1 mM HEPES, 0.5 mg/ml Geneticin (Gibco BRL). The media was removed and the plates were washed with PBS. The cells were incubated with a peptide, in Hepes-PBS-BSA with 0.4 mg/mlSoybean Trypsin Inhibitor, 0.5 mg/ml Bacitracin, 100 uM IBMX, for 15 min at 37 C. Cyclic AMP in the cell extracts was quantitated using the cAMP SPA direct screening assay system (Amersham Pharmacia Biotech Inc, Piscataway, N.J.,). The peptides shown in Table 3 were assayed for cAMP activity.
EC50 is defined as the concentration of the polypeptide at which 50% of maximum PACAP27 activity is achieved. “NA” denotes no detectable activities. “R3 Selectivity” is derived from the ratio of EC50 at R2 versus EC50 at R3.

pEC50: −log10 of the molar value. No end group written: not given here. Bounds are passed on as bounds.

As a reminder, the pEC50 is the negative decadic logarithm of the EC50, by convention in mol/L. Take “HSDAVFTDNYTRLRKQMAAKKYLNSIWNKR [Peptide R3P132]”: at PACAP-R3, the pEC50 was 9.70 and the “R3 Selectivity” value is 50. Also, on PACAP-R2, the negative logarithm of the EC50 (pEC50) was 8.00.
On to “HSDAVFTDNYTRLRKQLAVKKYLNSILN [Peptide R3P46]”, for which the pEC50 on PACAP-R3 is 10.22; at PACAP-R2, 9.40. Further, the “R3 Selectivity” value on PACAP-R3 turned out to be 7.
As for “HSDAVFTDNYTRLRKQMAVKKYLNSILK [Peptide R3P43]”, on PACAP-R3, the pEC50 is 10.10 and the “R3 Selectivity” value is listed as 10. Also, on PACAP-R2, the pEC50 is 9.10.
In the same order, the values of “HSDAVFTDNYTRLRKQMAKKKYLNSIKNRI [rR3P176]” are 8.70, 150 and 6.52.
In the same order, the values of “HSDAVFTDNYTRLRKQMAVKKYLNSIKKK [Peptide R3P58]” are 9.49, 170 and 7.26.
On to “HSDAVFTDNYTRLRKQMAAKKYLNSIKNKA [Peptide R3P153]”, for which, on PACAP-R3, the pEC50 is 9.70 and the “R3 Selectivity” value is reported as 200. Further, the pEC50 on PACAP-R2 is 7.40.
In the same order, the values of “HSDAVFTDNYTRLRKQMAAKKYLNSIKNKG [Peptide R3P158]” are 10.15, 90 and 8.22.
In the same order, the values of HSDGIFTKSYSRYRKQMAVKKYLAAVL-NH2 [PAC8] are 7.33, 1 and 7.37.
The matching figures for “HSDAVFTDNYTRLRKQMARKKYLNSIPNRI [rR3P182]”: 8.49, 90 and 6.55.
For the substance “HSDAVFTDNYTRLRKQLAAKKYLNDIKKQ [Peptide R3P34]”, at PACAP-R3, the pEC50 is 8.85 and the “R3 Selectivity” value is given as above 70. In addition, the pEC50 at PACAP-R2 is below 7.00.
The matching figures for “HSDAVFTDNYTRLRKQMAAKKYLNSIKNHR [Peptide R3P140]”: 9.52, 50 and 7.82.
For “HSDAVFTDNYTRLRKQMAKKKYLNSIRNRI [rR3P191]”, the pEC50 was 8.57 on PACAP-R3 and below 6.70 at PACAP-R2. Also, the “R3 Selectivity” value at PACAP-R3 is reported as above 80.
In the same order, the values of “HSDAVFTDNYTRLRKQMAAKKYLNSIKNKK [Peptide R3P161]” are 9.70, 7.22 and 300.
On to HSDGIFTDSYSRYEKQMAVKKYLAAVL-NH2 [PAC14], for which the negative logarithm of the EC50 (pEC50) on PACAP-R3 is 8.80; at PACAP-R2 it was 6.96. For the same substance, the “R3 Selectivity” value at PACAP-R3 was 70.
As for “HSDAVFTDNYTRLRKQMAAKKYLNSIKKGGT [Peptide R3P26]”, at PACAP-R3, the pEC50 was 9.26 and the “R3 Selectivity” value is above 180. In addition, the pEC50 on PACAP-R2 is below 7.00.
For HSDGIFTDSYSRYRKQMAVKKYLKAVL-NH2 [PAC24], at PACAP-R3, the pEC50 is 9.70 and the “R3 Selectivity” value came to 1.5. Besides, the pEC50 on PACAP-R2 was 9.52.
For “HSDAVFTDNYTRLRKQMAFKKYLNSIKNKR [Peptide R3P100]”, at PACAP-R3, the pEC50 was 9.52 and the “R3 Selectivity” value was 30. For the same substance, the pEC50 on PACAP-R2 is 8.00.
In the same order, the values of “HSDAVFTDNYTRLRKQMAVKKYLNSIKK-NH2 [Peptide R3P8]” are 8.85, 1.5 and 8.70.
In the same order, the values of “H-HSDAVFTDNYTRLRKQMAAKKYLNSIDNKR [Peptide R3P118]” are 9.30, 30 and 7.82.
For “HSDAVFTDNYTRLRKQMAAKKYLNSIKNTR [Peptide R3P149]”, at PACAP-R3, the pEC50 was 9.30 and the “R3 Selectivity” value is recorded as 80. The pEC50 on PACAP-R2 is 7.40.
For the substance “HSDGIFTDSYSRYRKQMAVKKYLSAVRHGQT-NH2 [Peptide R3P15]”, the pEC50 on PACAP-R3 was 8.30; on PACAP-R2, 7.92. At PACAP-R3, the “R3 Selectivity” value is on record as 2.
Regarding “HSDAVFTDNYTRLRKQMAAKKYLNSIKKKRY [Peptide R3P52]”, the pEC50 on PACAP-R3 was 9.40; at PACAP-R2, below 7.00. Also, at PACAP-R3, the “R3 Selectivity” value is reported as above 250.
The matching figures for “HSDAVFTDNYTRLRKQMAVKKYLNSIKKKRY [Peptide R3P56]”: 9.40, 7.40 and 100.
In the case of “HSDAVFTDNYTRLRKQMAAKKYLNSIKKK [Peptide R3P54]”, the pEC50 at PACAP-R3 is 9.30; on PACAP-R2, below 7.00. Moreover, the “R3 Selectivity” value at PACAP-R3 is above 200.
Consider “HSDAVFTDNYTRLRKQLAVKKYLNSIKKGGT [Peptide R3P25]”, for which the pEC50 on PACAP-R3 is 9.15; on PACAP-R2, 7.82. On PACAP-R3, the “R3 Selectivity” value is 20.
Regarding “HSDAVFTDNYTRLRKQMAAKKYLNSIRNKR [Peptide R3P128]”, at PACAP-R3, the pEC50 was 9.52 and the “R3 Selectivity” value came out at 200. In addition, the pEC50 on PACAP-R2 is 7.22.
On to HSDGIFTDSYSRYRKQMAVKKYLAAKL-NH2 [PAC26], for which the pEC50 was 9.52 at PACAP-R3 and 9.60 at PACAP-R2. Besides, the “R3 Selectivity” value at PACAP-R3 was 1.
With “H-HSDAVFTDNYTRLRKQMAAKKYLNSIKNKD [Peptide R3P155]”, the pEC50 on PACAP-R3 was 9.40; at PACAP-R2, 7.40. The “R3 Selectivity” value on PACAP-R3 is given as 100.
In the same order, the values of “HSDAVFTDNYTRLRKQMAAKKYLNSIKNVR [Peptide R3P150]” are 9.10, 7.40 and 50.
In the same order, the values of “H-HSDAVFTDNYTRLRKQLAAKKYLNDIKKNQ [Peptide R3P35]” are 8.59, below 7.00 and above 40.
For “HSDAVFTDNYTRLRKQMAAKKYLNSITNKR [Peptide R3P130]”, at PACAP-R3, the pEC50 was 9.00 and the “R3 Selectivity” value is reported as 40. Also, on PACAP-R2, the pEC50 was 7.40.
Regarding “HSDAVFTDNYTRLRKQMAVKKYLNDLKKGGT [Peptide R3P14]”, at PACAP-R3, the negative-log EC50 (pEC50) is 7.77 and the “R3 Selectivity” value is on record as 3. For the same substance, at PACAP-R2, the pEC50 is 7.30.
The matching figures for HSDGIFTDSYSRYRKQMAVEKYLAAVL-NH2 [PAC20]: 9.15, 30 and 7.70.
The matching figures for “HSDAVFTDNYTRLRKQVAAKKYLQSILNKRY [Peptide R3P92]”: 10.70, 100 and 8.70.
For the substance “H-HSDGIFTDSYSRYRKQLAAKKYLADVKKGGT [Peptide R3P37]”, on PACAP-R3, the pEC50 was 8.40 and the “R3 Selectivity” value turned out to be 18. Further, on PACAP-R2, the pEC50 was 7.15.
With “HSDGIFTDSYSRYRKQMAVKKYLAAVKKYLAAVRHG-NH2 [Peptide R3P17]”, on PACAP-R3, the negative-log EC50 (pEC50) is 8.40 and the “R3 Selectivity” value was found to be 2. Also, on PACAP-R2, the pEC50 was 8.05.
The matching figures for “HSDAVFTDQYTRLRKQLAAHKYLNTIKNKRY [Peptide R3P75]”: 9.52, above 500 and below 6.82.
Turning to “HSDAVFTDNYTRLRKQVAAKKYLQSILNK [Peptide R3P94]”, the pEC50 on PACAP-R3 is 10.05; at PACAP-R2 it was 8.05. The “R3 Selectivity” value on PACAP-R3 amounted to 100.
